Reference: patent US12485161B2, “Compositions comprising sulforaphane or a sulforaphane precursor and a milk thistle extract or powder” (Nutramax Laboratories, Inc., priority 2012, dated 2025)

Legend:
[1] = test system: NAD(P)H:quinine oxidoreductase (NQO1); conditions: oral administration, mammary epithelium; cited from earlier work
[2] = test system: heme oxygenase-1 (HO-1); conditions: oral administration, mammary epithelium; cited from earlier work
[3] = test system: myrosinase; assay: Conversion of glucoraphanin to sulforaphane in simulated intestinal fluid (Example 5); format: biochemical, broccoli; conditions: 38° C., 0.25 to 1.00 mmol/Liter ascorbic acid, FIG. 4
Procedure: Conversion of Glucoraphanin to Sulforaphane in the Presence of Simulated Intestinal Fluid. Simulated Intestinal Fluid (SW) powder, a commercially supplied concentrate closely approximating the human intestinal content in terms of composition, pH and ionic strength, was used. The experiment utilized a USP Dissolution Apparatus 2 (paddles), where into six dissolution vessels 500 mL of Simulated Intestinal Fluid was dispensed, along with 150 mg of freeze-dried broccoli sprout powder as a source of myrosinase. […] Aliquots were withdrawn every 15 minutes, and assayed for sulforaphane.

[4] = test system: HepG2 cells; assay: Glutathione levels in HepG2 cells (o-phthalaldehyde fluorescence); format: cell-based, human
Procedure: The following study was conducted to determine the effect of the combination of sulforaphane and silibinin on glutathione levels. Glutathione plays an important role in the body, as it can serve as an antioxidant, detoxifier, and immunity enhancer. Decreased levels of glutathione can cause a patient to be susceptible to oxidative stress, illness, and cancer. Therefore, an increase in glutathione levels is a beneficial effect.
In the study, the human liver cancer cell line, HepG2 cells were treated with DMSO (vehicle control), sulforaphane (SFN), silibinin (Silib), or the combination of sulforaphane and silibinin, for 24 hours. Cell lysates were collected and glutathione levels were measured using o-phthalaldehyde (OPT) as a fluorescent reagent. FIG. 5 and FIG. 6 show the results of the study.
In Part 1 of the study, the effect of 0.5 μM SFN was compared to various concentrations of silibinin and to the combination of 0.5 μM SFN and silibinin at various concentrations. […] An increase in glutathione levels is a beneficial effect. The results are depicted in FIG. 5.
In Part 2 of the study, the effect of 2 μM SFN was compared to various concentrations of silibinin and to the combination of 2 μM SFN and silibinin at various concentrations. […] An increase in glutathione levels is a beneficial effect to detoxify cells. The results are depicted in FIG. 6.

## C[S+]([O-])CCCC/C(=N\OS(=O)(=O)O)S[C@@H]1O[C@H](CO)[C@@H](O)[C@H](O)[C@H]1O (stereo partly drawn) [GR, 1-S-[(1E)-5-(methylsulfinyl)-N-(sulfonatooxy)pentanimidoyl]-1-thio-β-D-glucopyranose]
[1]
  Increase in NQO1 enzymatic activity: 3 fold
[2]
  Elevated immunostaining of HO-1 enzyme: 4 fold

## O=C1O[C@H]([C@@H](O)CO)C(O)=C1O [ascorbic acid]
[3]
  Yield of sulforaphane versus ascorbic acid concentration: direct correlation between larger yield of sulforaphane and higher concentrations of ascorbic acid

## C[S+]([O-])CCCCN=C=S (centres unmarked) [sulforaphane, 1-isothiocyanato-4-methylsulfinylbutane]
[4]; Part 1, 24 hours, 0.5 μM SFN, 100, 200, 300 μM Silib, FIG. 5
  Glutathione levels compared to DMSO (vehicle) control: remained the same
[4]; Part 2, 24 hours, 2 μM SFN, 100, 300 μM Silib, FIG. 6
  Glutathione levels compared to the control: remained the same
